Data set [1] concerns the target CDK1. Description: Inhibition of CDK1 (p34cdc2/cyclin Bcdc13 kinase, histone H1 substrate). It is filed as biochemical, starfish. The following applies: read-out: IC50 range class, inhibition of CDK1 in vitro. As for the experimental part: Starfish oocytes are induced into the M phase with 10 μM 1-methyl-adenine, frozen in liquid nitrogen and stored at −80° C. The ooctyes are homogenized and centrifuged, as described in D. Arlon et al., Cell 55, 371-378 (1988) and V. Rialet und L. Meijer, Anticancer Res. 11, 1581-1590 (1991), as required. For purification of the p34^cdc2/cyclin B^cdc13 kinase, the supernatant of the oocytes is introduced onto p9^CKShs Sepharose grains produced from recombinant human protein p9^CKShs, as described in L. Azzi et al., Eur. J. Biochem. 203, 353-360 (1992). After 30 minutes at 4° C. under constant rotation, the grains are washed thoroughly and the active p34^cdc2/cyclin B^cdc13 kinase is eluted with free protein p9^CKShs (3 mg/ml). The kinase eluted is tested as described in L. Meijer et al., EMBO J. 8, 2275-2282 (1989) and EMBO J. 10, 1545-1554 (1991), using histone H1 as the substrate. In this test, the compounds of the formula I and their pharmaceutically acceptable salts have an inhibiting concentration IC50 [μmol/l] of 0.01 to 10, usually of 0.05 to 1.

Data set [2] has as its target T1, c-Met (Homo sapiens, UniProt P08581).
T1 construct: c-Met cytoplasmic domain (amino acids 969 to C-terminus); made in house; host or cells: baculovirus / Sf9 cells
Description: Inhibition of c-Met kinase (33P-ATP filter assay). It is filed as biochemical. The settings on record: GST-c-Met cytoplasmic domain, poly(EY) substrate; read-out: IC50 range class, inhibition of c-Met. An excerpt:
Compounds of the formula I, for example, are able to inhibit c-Met kinase as mentioned already in the introduction. Using the sequence disclosed by Chan et al. (see Chan, A M-L, King H W S, Tempest P R, Deakin E A, Cooper C S, Brookes P. Primary structure of the met protein tyrosine kinase domain. Oncogene 1987; 12:229-233), a construct with this sequence, after hooking to a GST tag, was cloned into baculovirus and expressed in Sf9 cells. After partial purification by affinity chromatography on GST agarose resulting in a >90% pure preparation (SDS-PAGE), the kinase activity of this construct is used for inhibition assays using the compounds of formula I. The quality of the purified kinase preparations is highly reproducible: 9 batches of c-Met gives an average specific activity of 32.3±5.7 nmol/mg·min.
For inhibition studies, the following experimental protocol is used:
In vitro protein kinase assays are performed in 96-well plates. The amount of enzyme used in kinase assays and the incubation time for the kinase reaction are adjusted so that maximally 25% (in routine experiments <10%) of the substrate ATP are consumed.
Test compounds of the formula I are first dissolved in DMSO at a concentration of 1-10 mM (stock solution) and then further diluted with water/3% DMSO as required so that the final DMSO concentration in the assay is 1%.
The assay components are mixed in the following order: • 10 μl 3×compound (in 3% DMSO) • 10 μl 3×assay mix (MgCl2/MnCl2/ATP/^33P-ATP/poly(EY)) • 10 μl 3×enzyme dilution
Assays are incubated for 15 min (in special cases up to 60 min) at ambient temperature, reactions terminated by addition of 10 μl 0.25 M EDTA pH 7, then 20 μl transferred to a Millipore Immobilon^P membrane (previously soaked for 5 min with methanol, rinsed with water, then soaked for 5 min with 0.5% H3PO4 and mounted on vacuum manifold) with disconnected vacuum source. After spotting all samples, vacuum is connected and each well rinsed with 200 μl 0.5% H3PO4. Membranes are removed and washed 4× on shaker with 0.5% H3PO4, once with methanol. Membranes are counted after drying at ambient temperature, mounting in Packard TopCount 96-well frame, and addition of 10 μl/well of the scintillator Microscint™ (Packard).
IC50 values are calculated by logarithmic regression analysis of the percentage inhibition of each compound at 4 concentrations (usually 3- or 10-fold dilution series starting at 10 μM). In each experiment, the actual inhibition by reference compound is used for normalization of IC50 values to the basis of an average value of the reference inhibitor: Normalized IC50=measured IC50·average ref. IC50/measured ref. IC50 Example: • Reference inhibitor in experiment 0.4 μM, average 0.3 μM • Test compound in experiment 1.0 μM, normalization: 1.0·0.3/0.4=0.75 μM
For example, staurosporine or a synthetic staurosporine derivative are used as reference compounds.

In data set [3] the target is T2, Kdr (Homo sapiens, UniProt P35968).
T2 construct: The kinase domain of KDR is expressed as GST-fusion protein using the baculovirus system; made in house
Description: Inhibition of KDR protein tyrosine kinase in vitro. It is filed as biochemical. The settings on record: GST-fused KDR kinase domain, polyGluTyr(4:1), 8 μM ATP; read-out: IC50 range class, inhibition of Kdr in vitro. The method, then:
Inhibition of the enzyme activity of KDR protein tyrosine kinase can be determined as follows: The kinase domain of KDR is expressed as GST-fusion protein using the baculovirus system. The in vitro kinase assay is performed in 96-well plates using the recombinant GST-fused kinase domains expressed in baculovirus and purified over glutathione-Sepharose. ^33P-ATP (Amersham) is used as the phosphate donor, and the polyGluTyr(4:1) peptide (Sigma) is used as acceptor. The buffer is composed as follows: 29 mM Tris-HCl, pH 7.5; 10 mM MgCl2, 1 μM MnCl2, 8 μM ATP, 0.2 μCi ^33P-ATP, 8 μg/ml polyGluTyr. The reaction os carried out in a volume of 30 μl for 10 min at room temperature in the presence of either 1% DMSO or the test compound of formula I at the required concentration in 1% DMSO […]. The reaction is stopped by the addition of ethylenediaminetetraacetic acid to a final concentration of 60 mM. The assay mixture is then transferred onto a Immobilon-PVF membrane (Millipore), which is subsequently washed four times with 0.05% H3PO4 and once with ethanol. After drying, […] of Microscint Cocktail (Packard) is added and scintillation counting is performed (Hewlett-Packard Top Count). IC50 values are calculated by linear regression analysis of the percentage inhibition of each test compound in duplicate, at three concentrations (usually 0.01, 0.1 and 1 μM or 0.1, 1 and 10 μM).

Drawing on patent publication US7998972B2, “1H-imidazo[4,5-c]quinoline derivatives in the treatment of protein kinase dependent diseases” (Novartis AG, priority 2002, dated 2011), this text covers IC50 and melting point for 21 compounds.

Structures can show the parent of a compound that is named as a salt.

The IC50 is the concentration needed to halve the response being measured. What is called melting point is the temperature, or range, at which the solid turns liquid.

T1 sequence (P08581 969-1390 limits assumed): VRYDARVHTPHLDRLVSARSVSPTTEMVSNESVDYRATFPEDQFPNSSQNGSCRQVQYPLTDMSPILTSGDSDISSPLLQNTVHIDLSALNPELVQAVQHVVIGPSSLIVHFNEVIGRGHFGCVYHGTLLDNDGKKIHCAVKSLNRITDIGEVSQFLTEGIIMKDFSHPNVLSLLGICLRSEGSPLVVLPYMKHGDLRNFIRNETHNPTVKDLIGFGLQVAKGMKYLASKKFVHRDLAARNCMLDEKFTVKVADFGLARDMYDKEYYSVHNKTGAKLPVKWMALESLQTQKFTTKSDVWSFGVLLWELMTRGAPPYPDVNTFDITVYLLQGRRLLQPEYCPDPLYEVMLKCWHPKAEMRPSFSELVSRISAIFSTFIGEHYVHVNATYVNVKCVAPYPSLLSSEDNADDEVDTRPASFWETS
T2 sequence (P35968 834-1162 limits assumed): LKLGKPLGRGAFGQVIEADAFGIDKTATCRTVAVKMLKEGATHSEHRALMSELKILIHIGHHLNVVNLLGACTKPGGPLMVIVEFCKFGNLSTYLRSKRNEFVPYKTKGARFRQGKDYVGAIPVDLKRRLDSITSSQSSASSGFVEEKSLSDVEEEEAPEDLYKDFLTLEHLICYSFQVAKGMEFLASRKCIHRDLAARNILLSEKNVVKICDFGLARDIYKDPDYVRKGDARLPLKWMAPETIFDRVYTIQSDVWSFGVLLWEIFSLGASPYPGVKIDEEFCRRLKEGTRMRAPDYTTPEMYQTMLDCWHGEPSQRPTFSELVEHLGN

For `O=c1n(CC2CC2)c2cnc3ccc(Cl)cc3c2n1-c1ccccc1Cl` [Example 128, 8-Chloro-1-(2-chloro-phenyl)-3-(cyclopropyl-methyl)-1,3-dihydro-imidazo[4,5-c]quinolin-2-one], the IC50 in data set [1] lay in the range of 500 to 1000 nM.

For `Clc1ccc2ncc3ncn(-c4ccccc4Cl)c3c2c1` [Example 25, 8-Chloro-1-(2-chloro-phenyl)-1H-imidazo[4,5-c]quinoline], the IC50 in data set [2] was not above 500 nM.

Turning to `CCn1c(=O)n(-c2ccccc2Cl)c2c3cc(Cl)ccc3ncc21` [Example 108, 8-Chloro-1-(2-chloro-phenyl)-3-ethyl-1,3-dihydro-imidazo[4,5-c]quinolin-2-one], the 50% inhibitory concentration (IC50) was 500 to 1000 nM in data set [2], not above 500 nM in data set [1] and not above 500 nM in data set [3].

Consider `O=c1[nH]c2cnc3ccc(Br)cc3c2n1-c1ccccc1Cl` [Example 93, 8-Bromo-1-(2-chloro-phenyl)-1,3-dihydro-imidazo[4,5-c]quinolin-2-one], for which the IC50 in data set [2] is not above 500 nM; in data set [3], 500 to 1000 nM.

Regarding `O=c1n(Cc2ccoc2)c2cnc3ccc(Cl)cc3c2n1-c1ccccc1Cl` [Example 133, 8-Chloro-1-(2-chloro-phenyl)-3-(3-furyl-methyl)-1,3-dihydro-imidazo[4,5-c]quinolin-2-one], the half-maximal inhibitory concentration (IC50) in data set [2] is not above 500 nM.

As for `COc1ccc2ncc3ncn(-c4ccccc4)c3c2c1` [Example 48, 8-Methoxy-1-phenyl-1H-imidazo[4,5-]quinoline], the concentration for half-maximal inhibition (IC50) in data set [3] fell in the range of 1000 to 2000 nM.

For `O=c1[nH]c2cnc3ccc(Cl)cc3c2n1-c1ccccc1Cl` [Example 92, 8-Chloro-1-(2-chloro-phenyl)-1,3-dihydro-imidazo[4,5-c]quinolin-2-one], the 50% inhibitory concentration (IC50) in data set [2] lay within 500 to 1000 nM.

Take `N/C(Cc1nc2cnc3ccc(Cl)cc3c2n1-c1ccccc1Cl)=N/O` [Example 87, 2-[8-Chloro-1-(2-chloro-phenyl)-1H-imidazo[4,5-c]quinolin-2-yl]-N-hydroxy-acetamidine]: in data set [2], the IC50 lay within 500 to 1000 nM.

Consider `CC(C)n1c(=O)n(-c2ccccc2Cl)c2c3cc(Br)ccc3ncc21` [Example 114, 8-Bromo-1-(2-chloro-phenyl)-3-isopropyl-1,3-dihydro-imidazo[4,5-c]quinolin-2-one], for which the concentration for half-maximal inhibition (IC50) in data set [2] was 500 to 1000 nM; in data set [1], not above 500 nM; in data set [3], not above 500 nM.

`Cn1c(=O)n(-c2ccccc2Cl)c2c3cc(Br)ccc3ncc21` [Example 104, 8-Bromo-1-(2-chloro-phenyl)-3-methyl-1,3-dihydro-imidazo[4,5-c]quinolin-2-one]: the IC50 was not above 500 nM in data set [2] and 1000 to 2000 nM in data set [1].

Regarding `CCc1ccc2ncc3ncn(-c4ccccc4F)c3c2c1` [Example 50, 8-Ethyl-1-(2-fluoro-phenyl)-1H-imidazo[4,5-c]quinoline], the half-inhibitory concentration (IC50) in data set [2] and in data set [1] was not above 500 nM in each case.

Consider `N=C(N)Cc1nc2cnc3ccc(Cl)cc3c2n1-c1ccccc1Cl` [Example 88, 2-[8-Chloro-1-(2-chloro-phenyl)-1H-imidazo[4,5-c]quinolin-2-yl]-acetamidine], for which the IC50 in data set [2] is not above 500 nM.

`N#Cc1nc2cnc3ccc(Cl)cc3c2n1-c1ccccc1Cl` [Example 84, 8-Chloro-1-(2-chloro-phenyl)-1H-imidazo[4,5-c]quinoline-2-carbonitrile] returned a melting point of 242 to 244 °C. In addition, the 50% inhibitory concentration (IC50) in data set [2] is not above 500 nM.

For the compound `CCn1c(=O)n(-c2ccccc2Cl)c2c3cc(Br)ccc3ncc21` [Example 113, 8-Bromo-1-(2-chloro-phenyl)-3-ethyl-1,3-dihydro-imidazo[4,5-c]quinolin-2-one], the concentration for half-maximal inhibition (IC50) was not above 500 nM in data set [2], 1000 to 2000 nM in data set [1] and 1000 to 2000 nM in data set [3].

In turn, `NC(=O)c1nc2cnc3ccc(Cl)cc3c2n1-c1ccccc1Cl` [Example 83, 8-Chloro-1-(2-chloro-phenyl)-1H-imidazo[4,5-c]quinoline-2-carboxylic acid amide] yielded a melting point of 194 to 195 °C.

`NCc1cccc(-n2cnc3cnc4ccc(Cl)cc4c32)c1` [Example 42, 3-(8-Chloro-imidazo[4,5-c]quinolin-1-yl)-benzylamine] returned a melting point of 148 to 149 °C.

`N/C(Cc1ccccc1-n1cnc2cnc3ccc(-c4ccccc4)cc3c21)=N/O` [Example 68, N-Hydroxy-2-[2-(8-phenyl-imidazo[4,5-c]quinolin-1-yl)-phenyl]-acetamidine] yielded a melting point of 253 to 254 °C.

For `Fc1ccc(-n2cnc3cnc4cc(Cl)ccc4c32)cc1` [Example 15, 7-Chloro-1-(4-fluoro-phenyl)-1H-imidazo[4,5-c]quinoline], the melting point lay within 273 to 274 °C.

The compound `N/C(Cc1nc2cnc3ccc(Cl)cc3c2n1-c1ccccc1Cl)=N/O` (as salt: sodium) [Example 87, 2-[8-Chloro-1-(2-chloro-phenyl)-1H-imidazo[4,5-c]quinolin-2-yl]-N-hydroxy-acetamidine] gave a melting point of 114 °C.

In turn, `N=C(N)c1ccccc1-n1cnc2cnc3ccc(-c4ccccc4)cc3c21` [Example 69, 2-(8-Phenyl-imidazo-4,5-quinolin-1-yl)-benzamidine] showed a melting point of 284 to 285 °C.

With `O=c1n(-c2cccc(Cl)c2)c2cnc3ccc(Br)cc3c2n1-c1ccccc1Cl` [Example 102, 8-Bromo-1-(2-chloro-phenyl)-3-(3-chloro-phenyl)-1,3-dihydro-imidazo[4,5-c]quinolin-2-one], in data set [2], the IC50 lay within 1000 to 2000 nM.
